Assay results published in patent US20060067938A1, “Methods for the treatment of osteoarthritis and compositions thereof” (priority 2001, published 2006).
Several values for one entry are separate records, joined by “and”; a condition that tells them apart may be missing. Equal values may be shown once.

Tests used:
[1] = tested on: Collagenase-3 (COL-3) mRNA; assay: RT-PCR of COL-3 mRNA in PDGF stimulated primary human chondrocytes; assay type: cell-based; settings: primary human chondrocytes (non-OA joints)
Procedure: (§1) cDNA from Isolated Normal and Osteoarthritic Cartilage: A quantity of 1 μg total Isolated Normal or Osteoarthritic Cartilage RNA is treated with DNase (Ambion, Austin, Tex.) in DNase buffer (Ambion, Austin, Tex. in a quantity sufficient to make 10 μl total reaction volume and heated at 37° C. for 30 minutes. The DNase enzyme is inactivated by adding EDTA and heating at 75° C. for 5 min. cDNA is then synthesized from the reaction mixture above using Oligo dT12-18 with the Superscript Preamplification System (Life Technologies, Rockville, Md.). The final reaction volume is then adjusted to 300 μl. Cyclophilin RT-PCR is performed on each sample to allow comparative normalized PI3K, PKB, AGG-1, or COL-3 gene quantitation. Reverse transcriptase polymerase chain reaction (RT-PCR) for cyclophilin is first performed using 3 μl template utilizing the Expand Long PCR System (Roche Biochemicals, Indianapolis, Ind.). Cyclophilin RT-PCR is performed on each sample for 28 cycles to prevent saturation of the PCR products, whereas 35-40 cycles is necessary to detect less abundant genes. Loading dye is added to the 50 μl RT-PCR reaction mix, 10 μl of the dyed RT-PCR reaction mix is loaded onto a 4-20% TBE gradient gel (BioRad, Hercules, Calif.)) and separated at 200V for 45 min. The gel is stained in 1×TBE (Sigma, St. Louis, Mo.) solution containing SYBR green (1:10,000) (Molecular Probes, Eugene, Oreg.) for 1 hour and then scanned on the Storm 860—Blue Fluorescence/Chemifluorescence scanner (Molecular Dynamics, Division of Amersham Pharmacia, Piscataway, N.J.). Individual bands are quantitated using ImageQuant software (Molecular Dynamics, Division of Amersham Pharmacia, Piscataway, N.J.). The fluorescence value determined for each PCR band representing a particular gene is normalized against the fluorescence value for the cyclophilin band in the same donor sample.
(§2) Induction or Inhibition of PI3KI3K/PKB In Cultured Chondrocytes: In all studies described below chondrocytes were cultured in DMEM medium with or without 10% Fetal Bovine Serum (Invitrogen Life Technologies, Carlsbad, Calif.). […]

[2] = tested on: Collagenase-3 protein secretion; assay: ELISA for COL-3 protein secretion in chondrocyte supernatants; assay type: cell-based, human; settings: for Collagenase-3 protein in supernatant: 24 hr, control 2491 ± 147
Procedure: ELISA for COL-3—Chondrocyte culture cells are incubated in serum free media (DMEM) overnight, and then incubated for 1 hour in fresh serum free media without or with (50 ng/ml) PDGF-BB (Invitrogen-Life Technologies, Carlsbad, Calif.) is added to each well and incubated for an additional 24 hours. Cell culture supernatants are collected and the levels of COL-3 protein are determined for each treatment using Amersham (Piscataway, N.J.) human collagenase-3 ELISA. FIG. 5 depicts the ELISA of COL-3 protein secretion and inhibition by LY249002. Chondrocyte cells isolated as described above are incubated in serum free media overnight, and then incubated for 1 hour in fresh serum free medium (DMEM) with or without LY294002. Then 50 ng/ml PDGF-BB (Sigma, St. Louis, Mo.) is added to each well and incubated for an additional 24 hours. Chondrocyte cell culture supernatants are collected and the levels of COL-3 protein are determined for each treatment using the commercially available Amersham (Piscataway, N.J.) human collagenase-3 ELISA based assay.

[3] = tested on: PI3K/PKB pathway (phospho-PKB); assay: Western blot of chondrocyte lysates probed with anti-phospho-PKB (activation of PI3K/PKB pathway by PDGF); assay type: cell-based; settings: primary human chondrocytes (non-OA joints), two samples
Procedure: (§3) Induction or Inhibition of PI3KI3K/PKB In Cultured Chondrocytes: In all studies described below chondrocytes were cultured in DMEM medium with or without 10% Fetal Bovine Serum (Invitrogen Life Technologies, Carlsbad, Calif.). Cultured chondrocyte cells are incubated overnight in serum free medium (DMEM) and then treated, as one of the following types of samples, 1) control samples, by incubating the cultures for 24 hour in serum free medium (DMEM) 2) induced samples, by incubating the cultures for 24 hours in serum free medium containing the PI3K/PKB inducer PDGF-BB (Invitrogen—Life Technologies Carlsbad, Calif.) or 3) PI3K/PKB inhibited samples, by pre-incubating the samples for 1 hour with the PI3K/PKB inhibitor LY294002 (Sigma, St. Louis, Mo.) and then incubating the cultures for 24 hours in serum free medium (DMEM) containing the PDGF-BB. FIG. 3 depicts activation of PI3K/PKB expression by PDGF in primary human chondrocytes. FIG. 4 depicts LY249002 (2-(4-morpholinyl)-8-phenyl-4H-1-benzopyran-4-one) inhibition of PDGF activated PI3K/PKB expression in primary human chondrocytes.
Western Blotting—Cells are incubated in serum free medium (DMEM) overnight, and then incubated for 10 minutes in fresh serum free media containing PDGF-BB (50 ng/ml)+/−LY294002 (20 μM). Cells are washed in ice cold PBS, scraped and sonicated in ice cold lysis buffer containing 50 mM Tris pH 7.4, 1% NP-40, 0.25% Na deoxycholate, 150 mM NaCl, 1 mM EGTA, 1 mM PMSF, aprotinin, leupeptin, and pepstatin (all at 1 μg/ml 1 mM Na vanadate, 1 mM NaF, and 1 μM microcystin) (Sigma, St Louis, Mo.). The protein concentration of the lysate is determined using the micro bicinchoninic acid assay (Pierce, Rockford, Ill.) and 20 μg lysate is run per lane for phospho-PKB and phospho-forkhead and 5 μg for anti-His antibody [rabbit anti-phospho-PKB-Ser473 NEB, rabbit anti-phospho-FKHRL1-Thr32 NEB, mouse anti penta-His (Qiagen, Valencia, Calif.)]. Peroxidase labeled secondary antibodies are purchased from Jackson Laboratories (Bar, Harbor, Me.). Blots are visualized with ECL reagent (Amersham, Piscataway, N.J.). […]

[4] = tested on: Collagenase-3 (MMP-13) mRNA; assay: Real time PCR, fold induction of Collagenase-3 (MMP-13) mRNA in human articular chondrocytes; assay type: cell-based; settings: chondrocytes from one OA patient
Procedure: (§4) Chondrocytes were isolated from 2 normal and 2 OA patents. Cells alone or those over expressing the dominant negative form of Akt (retroviral mediated gene transfer) were treated with IL-1 beta, OSM or IL-1 beta+OSM with and without the PI3K inhibitor LY294002. RNA was isolated and the levels of Agg-1, Col-3 mRNA were measured by real time PCR. All treatments in four different donors were done in duplicate.
(§5) Total RNA was isolated from pooled duplicate 96-well plates using Qiagen RNeasy 96 kit (Qiagen, Valencia, Calif.) according to the manufacturer's instructions. The optional on-column Dnase I digestion was employed to eliminate contaminating genomic DNA. First strand cDNA was synthesized using random primers with the High-Capacity cDNA Archive kit (PE Applied Biosystems, Foster City, Calif.) in a 100 ul reaction volume.
(§6) Real time PCR was performed in a 384-well format on the ABI Prism 7900HT Sequence Detection System (Applied Biosystems, Foster City, Calif.) using SYBR Green PCR Master Mix (Applied Biosystems, Foster City, Calif.). The 20 ul reaction contained 5 ul cDNA, 200 nM forward and reverse primers, and SYBR Green PCR Master Mix. The default cycling program (95° C. for 10′ and 40 cycles of 95° C., 15″, 60° C., 1′) was followed by a slow ramping step by which a melting curve is generated to confirm the specificity of the PCR product and the absence of primer dimers.
(§7) Amplification of GAPDH was used to standardize the amount of sample cDNA added to the reaction. Changes in gene expression were calculated using the Comparative Ct method which makes use of a calibrator sample. This is the sample with which all others will be compared and whose value is therefore set to 1. All other values are therefore expressed relative to the calibrator. The retroviral vector containing no cDNA insert represents the calibrator sample. The amount of target, relative to the calibrator is calculated according to the formula 2^□□CT as outlined in ABI User Bulletin #2 (PE Applied Biosystems, Foster City, Calif.).

[5] = tested on: Aggrecanase-1 (AGG-1) mRNA; assay: RT-PCR of AGG-1 mRNA in PDGF stimulated primary human chondrocytes; assay type: cell-based; settings: primary human chondrocytes (non-OA joints)
Procedure: as §1, §2

[6] = tested on: Aggrecanase-1 mRNA; assay: Real time PCR, fold induction of Aggrecanase-1 mRNA in human articular chondrocytes; assay type: cell-based; settings: chondrocytes from one OA patient
Procedure: as §4, §5, §6, §7

[7] = tested on: PKB pathway (phospho-FKHRL1); assay: Western blot of chondrocyte lysates probed with anti-phospho-FKHRL1; assay type: cell-based; settings: PDGF 50 ng/ml alone; primary human chondrocytes (non-OA joints); two samples
Procedure: as §3, with “FIG. 3 depicts activation of PI3K/PKB expression by PDGF in primary human chondrocytes. FIG. 4 depicts LY249002 (2-(4-morpholinyl)-8-phenyl-4H-1-benzopyran-4-one) inhibition of PDGF activated PI3K/PKB expression in primary human chondrocytes.” left out
Western Blotting—Cells are incubated in serum free medium (DMEM) overnight, and then incubated for 10 minutes in fresh serum free media containing PDGF-BB (50 ng/ml)+/−LY294002 (20 μM). […] The protein concentration of the lysate is determined using the micro bicinchoninic acid assay (Pierce, Rockford, Ill.) and 20 μg lysate is run per lane for phospho-PKB and phospho-forkhead and 5 μg for anti-His antibody [rabbit anti-phospho-PKB-Ser473 NEB, rabbit anti-phospho-FKHRL1-Thr32 NEB, mouse anti penta-His (Qiagen, Valencia, Calif.)]. […]

[8] = PDGF 50 ng/ml + LY294002 20 μM, listed as LY2490002
[9] = inhibitor + IL-1 + Oncostatin M
[10] = inhibitor + IL-1 + Oncostatin M, listed as LY 294002

O=c1cc(N2CCOCC2)oc2c(-c3ccccc3)cccc12 [LY294002, 2-(4-morpholinyl)-8-phenyl-4H-1-benzopyran-4-one]
Collagenase-3 gene expression (PCR amplicon gel signal) ([1]; PDGF 50 ng/ml + LY294002 20 μM): 302
Collagenase-3 gene expression (PCR amplicon gel signal) [1, 8]: inhibits the downstream production of mRNA for AGG-1 and COL-3
Collagenase-3 protein in supernatant ([2]; 1 μM LY294002 in the presence of PDGF 50 ng/ml): 2374 ± 58 pg/mL
Collagenase-3 protein in supernatant ([2]; 5 μM LY294002 in the presence of PDGF 50 ng/ml): 1555 ± 104 pg/mL
Collagenase-3 protein in supernatant ([2]; 20 μM LY294002 in the presence of PDGF 50 ng/ml): 342 ± 8 pg/mL
Secretion of COL-3 protein (in words) ([2]; PDGF stimulated primary human chondrocytes): inhibits secretion of COL-3 protein
Anti Phospho-PKB western blot signal ([3]; PDGF 50 ng/ml + LY294002 20 μM): 4706 and 3408
Anti Phospho-PKB western blot signal [3, 8]: decreases PDGF induced activation of PKB
Fold Induction of mRNA, Collagenase-3 [4, 9]: blocked
Fold Induction of mRNA, Collagenase-3 [4, 10]: 19 fold
Fold Induction of mRNA, Collagenase-3 ([4]; inhibitor + IL-1): 5 fold
Fold Induction of mRNA, Collagenase-3 ([4]; inhibitor + Oncostatin M): 10 fold
Fold Induction of mRNA, Collagenase-3 ([4]; inhibitor + PDGF): 2 fold
Aggrecanase-1 gene expression (PCR amplicon gel signal) ([5]; PDGF 50 ng/ml + LY294002 20 μM): 0
Aggrecanase-1 gene expression (PCR amplicon gel signal) [5, 8]: inhibits the downstream production of mRNA for AGG-1 and COL-3
Fold Induction of mRNA, Aggrecanase-1 [6, 9]: blocked
Fold Induction of mRNA, Aggrecanase-1 [6, 10]: 49 fold
Fold Induction of mRNA, Aggrecanase-1 ([6]; inhibitor + IL-1): 22 fold
Fold Induction of mRNA, Aggrecanase-1 ([6]; inhibitor + Oncostatin M): 45 fold
Fold Induction of mRNA, Aggrecanase-1 ([6]; inhibitor + PDGF): 2 fold

Interleukin-1 [IL-1]
Fold Induction of mRNA, Collagenase-3 ([4]; inducer alone, untreated 1): 150 fold
Fold Induction of mRNA, Aggrecanase-1 ([6]; inducer alone, untreated 2): 180 fold

oncostatin M
Fold Induction of mRNA, Collagenase-3 ([4]; inducer alone, untreated 1): 63 fold
Fold Induction of mRNA, Aggrecanase-1 ([6]; inducer alone, untreated 2): 221 fold

platelet-derived growth factor [PDGF]
Collagenase-3 gene expression (PCR amplicon gel signal) ([1]; PDGF 50 ng/ml alone): 1242
Anti-Phospho-FKHRL1 western blot signal [7]: 15838 and 16507
Anti Phospho-PKB western blot signal ([3]; PDGF 50 ng/ml alone): 17940 and 22369
Fold Induction of mRNA, Collagenase-3 ([4]; inducer alone, untreated 1): 36 fold
Aggrecanase-1 gene expression (PCR amplicon gel signal) ([5]; PDGF 50 ng/ml alone): 418
Fold Induction of mRNA, Aggrecanase-1 ([6]; inducer alone, untreated 2): 10 fold
